Reference: paper PMC11496873, “Synthesis, characterization, and in vitro–in ovo toxicological screening of silibinin fatty acids conjugates as prodrugs with potential biomedical applications” (Biomolecules and Biomedicine, 2024)
Where two headings read alike, the source gives them in different places.

Key:
[1] = test system: chorioallantoic membrane (CAM); experiment: In ovo irritation test (HET-CAM); type: in vivo, chicken; conditions: SIL-O and SIL-L at 100 µM
Method: The potential irritant effect of SIL-O and SIL-L (100 µM) was assessed in ovo, by applying the Hen’s Egg Test – Chorioallantoic Membrane (HET-CAM) test. The applied procedure was also described by Breban-Schwarzkopf et al.. Briefly, chicken-fertilized eggs were cleaned and disinfected with ethanol 70% and placed in an incubator at 37 ^∘C and 60% humidity. On the fourth day of incubation, a cut was performed on the eggs’ tips to allow the extraction of 6–7 mL albumen, while on the fifth day, a window was cut on the upper side of each egg and covered with adhesive tape. The experiment was performed on the tenth day of incubation, by applying the samples directly on the chorioallantoic membrane (CAM) and analyzing the occurrence of vascular impairments, such as hemorrhage, lysis, and coagulation for 5 min. Representative pictures were taken before the start of the experiment (T0) and at its end (T5) using the Discovery 8 SteREO Microscope equipped with an Axio CAM 105 color camera and processed in ZEN core version 3.8 software (Zeiss, Göttingen, Germany). The irritant potential was determined by calculating the irritation score (IS) for each sample and interpreted as presented in a previous publication.

H9c2(2-1) cells = experiment: Cell migration (scratch) assay; type: cell-based; conditions: 24 h, normalized to control
Method: (§1) To investigate the effect of SIL, SIL-O, and SIL-L treatments on the migration of H9c2(2-1), HepaRG, and HaCaT cells, the scratch assay was performed as follows: (A) the cells (10^5 cells/mL/well) were seeded in Corning Costar 24-well plates and left to attach and reach a proper confluence, (B) a scratch was automatically made in every well using the AutoScratch™ Wound Making Tool (BioTek Instruments Inc., Winooski, VT, USA), (C) the cells were exposed to SIL and its FAs derivatives 1, 10, and 25 µM for 24 h, and (D) the wound area was imaged at two time points (0 and 24 h) using Cytation 1 Imaging Reader (BioTek® Instruments Inc., Winooski, VT, USA). The Gen5 ™ Microplate Data Collection and Analysis Software (BioTek® Instruments Inc., Winooski, VT, USA) was used to measure the wound widths in each image. The migration rates (%) for the applied treatments were determined using the formula presented below and normalized to control.
(§2) Migration rate (%) ═ [drawing 2] ×100, where:
(§3) At0 ═ wound width at 0 h,
(§4) At24 ═ wound width at 24 h.

HepaRG cells = experiment: Cell migration (scratch) assay; type: cell-based; conditions: 24 h, normalized to control
Method: as §1, §2, §3, §4

[2] = test system: LX-2 human hepatic stellate cells; parameters: method as in PMID 27746612; conditions: LX-2 cells, 10, 50 and 100 µM; cited from earlier work
[3] = parameters: method as in PMID 19601873; conditions: buffers with pH 1.0–7.8 and physiological media (plasma, intestinal and liver fluids); cited from earlier work
HaCaT keratinocytes = experiment: Hoechst 33342 nuclear staining, apoptotic index; type: cell-based, human; conditions: 100 µM, 24 h
Method: The influence of SIL, SIL-O, and SIL-L (100 µM) on nuclear morphology was evaluated by imaging the cells’ nuclei stained with Hoechst 33342. Shortly, at the end of the treatment, the H9c2(2-1), HepaRG, and HaCaT cells cultured in 12-well plates were treated with staining solution (500 µL/well, dilution of 1:2000 in PBS) for 10 min at room temperature, protected from light and washed with PBS before imaging which was performed on Cytation 1 Imaging Reader (BioTek Instruments Inc., Winooski, VT, USA). Image processing was conducted using the Gen5™ Microplate Data Collection and Analysis Software (BioTek Instruments Inc., Winooski, VT, USA). Apoptotic index (AI) was calculated by applying the formula previously reported: […]

H9c2 cells = test system: H9c2 cells; parameters: method as in PMID 22818713; conditions: concentrations up to 200 µM, 48 h; cited from earlier work
HaCaT cells [4] = experiment: Cell migration (scratch) assay; type: cell-based, human; conditions: 24 h
Method: as §1, §2, §3, §4

[5] = test system: HK-2 human renal tubular endothelial cells; parameters: method as in PMID 32103902; conditions: HK-2 cells, 60 and 90 µM, 48 h; cited from earlier work
MTT cell viability assay = type: cell-based
Method: The study was performed using three cell lines – H9c2(2-1) cardiomyoblasts (CRL-1446™), HepaRG hepatocytes (HPRGC10), and HaCaT keratinocytes (300493) – delivered as frozen vials by ATCC (Lomianki, Poland), ThermoFisher Scientific (Waltham, MA, USA), and CLS Cell Lines Service GmbH (Eppelheim, Germany), respectively. H9c2(2-1) and HaCaT cells were grown in DMEM, while HepaRG cells were cultured in William’s E Medium containing insulin from bovine pancreas (at a final concentration of 4 µg/mL) and hydrocortisone 21-hemisuccinate sodium salt (at a final concentration of 50 µM). Both media were supplemented with 10% FCS and 1% antibiotics (penicillin 100 U/mL and streptomycin 100 µg/mL). The cells were cultured at 37 ^∘C and 5% CO2, in a humidified incubator for cell culture, presenting normal proliferation during the experiments.
The impact of all tested compounds (1, 10, 25, 50, and 100 µM) on the viability of H9c2(2-1), HepaRG, and HaCaT cells was assessed using the MTT method which was performed according to a previous publication. Briefly, the cells cultured in 96-well plates were exposed to SIL, SIL-O, and SIL-L for 24 h. At the end of the treatment, the culture medium containing SIL, SIL-O, and SIL-L was removed and replaced with 100 µL/well of the specific culture media for the used cell lines (DMEM for H9c2(2-1) cells and HaCaT; William’s E Medium for HepaRG). Then, 10 µL of MTT reagent was added in every well, followed by 3 h of incubation of the plates at 37 ^∘C. The absorbance measurements were performed at 570 and 630 nm on Cytation 5 Microplate Reader (BioTek Instruments Inc., Winooski, VT, USA) following the addition of the MTT solubilization solution (a volume of 100 µL/well), and the plates’ incubation at room temperature for 30 min, protected from light.

[6] = test system: Madin–Darby Canine Kidney (MDCK) cells; parameters: method as in PMID 20036447; conditions: 800 µM, 2 h; cited from earlier work
HaCaT cells [7] = test system: HaCaT cells; parameters: method as in earlier work; conditions: 24 h, cited from earlier work

**Q.** Which results are given for CCCCCCCCCCCCOS(=O)(=O)[O-].[Na+] [SDS 1%, sodium dodecyl sulfate]?
**A.** IS value (irritation score) ([1]; 5 min): 19.74; Observation (irritant classification) ([1]; based on IS value): Strong irritant

**Q.** For COc1cc(C2Oc3cc([C@H]4Oc5cc(O)cc(O)c5C(=O)[C@@H]4O)ccc3OC2CO)ccc1O (some centres unmarked) [SIL, Silibinin], which migration rate (H9c2(2-1) cells; 1 µM) is on record?
**A.** 105.34%

**Q.** What about the migration rate (H9c2(2-1) cells; 25 µM) of the same compound?
**A.** 119.8%

**Q.** What about the migration rate (HepaRG cells; 10 µM) of the same compound?
**A.** around 50%

**Q.** And the migration rate (HepaRG cells; 25 µM)?
**A.** around 50%

**Q.** And the “effect on migratory properties” value [2]?
**A.** inhibitory effect

**Q.** What about the stability [3] of the same compound?
**A.** unstable

**Q.** And the “apoptotic index (AI)” value (HaCaT keratinocytes)?
**A.** no significant changes

**Q.** What about the cytotoxicity (H9c2 cells) of the same compound?
**A.** not cytotoxic

**Q.** And the effect on migration (HaCaT cells [4]; 25 µM, compared to control)?
**A.** significant inhibition

**Q.** And the effect on migration (HaCaT cells [4]; 1 and 10 µM)?
**A.** neither SIL, nor SIL-O or SIL-L affected

**Q.** And the effect on viability [5]?
**A.** significantly decreased the viability

**Q.** And the viability at 24 h (MTT cell viability assay; human, HepaRG hepatocytes, higher concentrations (reduction up to), normalized to control)?
**A.** ~80%

**Q.** And the viability at 24 h, 1 µM (MTT cell viability assay; rat, H9c2(2-1) cardiomyoblasts, 1 µM, normalized to control)?
**A.** 128%

**Q.** What about the viability at 24 h, 100 µM (MTT cell viability assay; rat, H9c2(2-1) cardiomyoblasts, all tested concentrations (1, 10, 25, 50, 100 µM), compared to control) of the same compound?
**A.** > 100%

**Q.** And the cytotoxicity [6]?
**A.** no cytotoxic effect

**Q.** Which “enhancement in wound healing compared to control” value (“enhancement … compared to control” for short) (HaCaT cells [7]; 0.1 µM (first concentration listed)) does the source give for CCCCCCCC/C=C\CCCCCCCC(=O)Oc1c(-c2ccc(O)c(O)c2)oc2cc(O)cc(O)c2c1=O [quercetin-3-oleate] here?
**A.** 47%

**Q.** What about the “enhancement … compared to control” value (HaCaT cells [7]; 0.1 µM (second concentration listed)) of the same compound?
**A.** 35%

**Q.** And the “enhancement … compared to control” value (HaCaT cells [7]; 1 µM)?
**A.** 51%
